# Test results published in PubChem BioAssay AID1645866 (Buhrlage Lab, Dana-Farber Cancer Institute and Novartis …, 2021).
# Activity calls are given as the source filed them.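 The calls were made as follows: active = in confirmatory dose-response testing, peak deubiquitinase inhibition of 30% or more; inactive = the rest.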
# Molecular target: Ubiquitin carboxyl-terminal hydrolase 28 (Homo sapiens) (UniProt Q96RU2)
# Experiment: Concentration-response biochemical assay confirming initial hits as inhibitors of ubiquitin-specific protease 28 (AID 1645866)
# Settings: purified USP28, ubiquitin-rhodamine fluorescence, 30 min
# Sequence of Ubiquitin carboxyl-terminal hydrolase 28 (Homo sapiens) (Q96RU2 whole entry, looked up): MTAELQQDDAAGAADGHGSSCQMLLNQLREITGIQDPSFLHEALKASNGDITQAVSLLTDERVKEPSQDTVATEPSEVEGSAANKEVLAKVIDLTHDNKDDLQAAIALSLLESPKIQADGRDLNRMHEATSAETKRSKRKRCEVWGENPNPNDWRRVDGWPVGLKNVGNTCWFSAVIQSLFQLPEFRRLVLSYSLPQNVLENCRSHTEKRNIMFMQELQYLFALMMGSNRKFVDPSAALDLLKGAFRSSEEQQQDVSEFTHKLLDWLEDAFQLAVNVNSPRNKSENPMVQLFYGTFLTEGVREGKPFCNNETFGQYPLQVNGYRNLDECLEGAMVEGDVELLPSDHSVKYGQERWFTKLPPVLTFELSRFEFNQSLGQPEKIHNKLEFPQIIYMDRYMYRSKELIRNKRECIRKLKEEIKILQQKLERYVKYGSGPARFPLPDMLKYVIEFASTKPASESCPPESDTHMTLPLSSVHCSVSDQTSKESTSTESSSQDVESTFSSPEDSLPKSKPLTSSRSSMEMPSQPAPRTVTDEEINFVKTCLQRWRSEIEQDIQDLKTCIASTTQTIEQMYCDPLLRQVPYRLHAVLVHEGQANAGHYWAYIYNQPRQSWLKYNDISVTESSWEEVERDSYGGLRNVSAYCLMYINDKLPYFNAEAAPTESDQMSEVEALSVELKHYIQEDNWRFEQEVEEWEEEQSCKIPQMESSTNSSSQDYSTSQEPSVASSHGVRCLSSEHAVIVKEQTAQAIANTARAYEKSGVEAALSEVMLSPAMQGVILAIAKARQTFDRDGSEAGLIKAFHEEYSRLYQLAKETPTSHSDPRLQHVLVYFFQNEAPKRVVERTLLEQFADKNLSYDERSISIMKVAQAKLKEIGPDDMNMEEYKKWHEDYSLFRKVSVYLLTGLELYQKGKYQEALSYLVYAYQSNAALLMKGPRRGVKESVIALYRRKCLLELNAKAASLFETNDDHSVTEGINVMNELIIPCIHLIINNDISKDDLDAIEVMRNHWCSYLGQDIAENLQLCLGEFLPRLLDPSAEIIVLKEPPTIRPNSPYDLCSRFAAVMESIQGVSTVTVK
row,SMILES,IC50
1,COc1ccc(CNC(=O)CN2C(=O)CC(c3ccccc3)=Nc3ccccc32)cc1,11.9 µM
2,NC(=O)CCC(=O)N[C@H]1C[C@H]2CN(Cc3ccccc3)c3ccccc3CN2C1,> 50 µM (inactive)
3,N#Cc1cc(C(=O)c2ccc(Cl)cc2)c[nH]1,41.9 µM
4,COc1cccc(-n2nnc(C(=O)Nc3ccc(C)c(C)c3)c2C)c1,8.7 µM
5,CN(C)CCc1cc2c(c3c1ccc1ccccc13)OCO2,4.59 µM
6,Oc1cc(OCc2cccc(C(F)(F)F)c2)ccc1-c1ccn[nH]1,3.84 µM
7,O=c1c2cnc(N3CCCCC3)nc2ccn1CCc1ccccc1,5.5 µM
8,COc1c(O)cc(CC(=O)O)c(C(C)=O)c1O,10.5 µM
9,COc1cccc2c1NC(=O)C21CCN(C(=O)Nc2cccc3ccccc23)CC1,> 50 µM (inactive)
10,O=C(NCCc1ccco1)c1ccc(N2CCOc3ccccc32)s1,22.4 µM
11,O=C(Nc1ccc2c(c1)OCCO2)c1cc(CN2CCOCC2)on1,11.9 µM
12,Cc1ccc(NC(=O)Cn2c(-n3nc(C)cc3C)nc3c(c2=O)CCCC3)c(C)c1,35.8 µM
13,O=C(COc1nsnc1N1CCOCC1)Nc1ccc(F)c(F)c1,> 50 µM (inactive)
14,CCC(=O)Nc1nc2cc(NC(=O)Nc3cc(C)cc(C)c3)ccc2s1,2.97 µM
15,Cc1cc(NC(=O)c2cc(-c3cccnc3)n[nH]2)ccc1Br,1.03 µM
16,Cc1nc(-c2cccc(NC(=O)C3CCN(c4ccccc4)C3=O)c2)no1 (stereo not drawn),27.3 µM
17,CCOc1ccc(-c2noc(-c3nn(-c4cccc(OC)c4)ccc3=O)n2)cc1,4.44 µM
18,O=C(Cn1c(=O)n(Cc2ccc(F)cc2)c(=O)c2sccc21)Nc1cccc(Cl)c1,11.4 µM
19,CCn1ccc2c(cc(C(=O)Nc3ccccc3F)n2C)c1=O,15.2 µM
20,O=C(NCc1ccccc1)c1ccc2c(=O)n(-c3ccccc3)c(=O)[nH]c2c1,18.6 µM
21,COc1ccc(CCNC(=O)CCCn2c(=O)c3ccccc3n(CC(=O)OCc3ccccc3)c2=O)cc1OC,16 µM
22,CC(Sc1n[nH]c2nc3ccccc3n12)C(=O)Nc1ccc2c(c1)OCCO2 (stereo not drawn),37.5 µM
23,CCOc1ccc(CCNC(=O)c2cccc3c2C(=O)N(CCOC)C3)cc1OCC,16.1 µM
24,CC(C)c1ccc(NC(=O)c2cc3ncc(Br)cn3n2)cc1,5.14 µM
25,CC(=O)c1ccc(NC(=O)C2CCN(c3cncnc3N3CCCC3)CC2)cc1,0.674 µM
26,O=C(CCCn1c(=O)[nH]c2cc(Cl)ccc2c1=O)N1CCc2ccccc2C1,19.4 µM

row,SMILES,IC50
1,COc1ccccc1C(=O)NCC(c1ccc2c(c1)CCCN2C)N1CCCC1 (stereo not drawn),> 50 µM (inactive)
2,Cn1nc(-c2nc(-c3ccccc3)no2)c2c1CCN(C(=O)C1CC1)C2,> 50 µM (inactive)
3,CCc1nnc(NC(=O)c2nnn(-c3ccccc3Cl)c2C)s1,28.5 µM
4,Cc1ccc2c(c1)-c1c(c(C(=O)N3CCN(c4ccccc4)CC3)nn1C)CS2,> 50 µM (inactive)
5,Cn1c(-c2nnc(SCC(=O)NCCc3ccccc3)o2)cc2ccccc21,23.7 µM
6,COc1cc(C)c2c(=O)c3c(oc2c1)C(=O)c1c(O)c(OC)cc(O)c1C3=O,1.56 µM
7,COc1ccc(OC)c(NC(=O)c2ccc(-n3nnnc3SC)cc2)c1,22.6 µM
8,O=C(Nc1ccc(Cl)cc1)Nc1cccn2ncnc12,11.9 µM
9,CC(=O)c1cccc(NC(=O)c2ccc(-c3csc(C)n3)cc2)c1,3.13 µM
10,COc1ccc(NC(=O)C2CC(=O)Nc3cc(-c4ccccc4)nn32)cc1 (stereo not drawn),21.7 µM
11,Cc1[nH]nc(NC(=O)C2COc3ccccc3O2)c1-c1ccccc1 (stereo not drawn),15.1 µM
12,COC(=O)c1sccc1NC(=O)COc1ccsc1C(=O)OC,25.6 µM
13,CCCCNc1nc2c(-c3ccccc3)nnn2c2ccccc12,6.63 µM
14,Cc1oc(-c2ccc(C(=O)NCC3COCCO3)cc2)nc1CN1CCc2ccccc21 (stereo not drawn),38.8 µM
15,COc1cccc(NC(=O)Nc2ccc(CCc3nc4ccccc4[nH]3)cc2)c1,6.28 µM
16,COc1ccccc1-c1nc(-c2nnn(Cc3cccc(F)c3)c2C)no1,10.4 µM
17,Oc1ccc(Br)cc1CNc1ccc(F)cc1,18.3 µM
18,COc1ccc2[nH]cc(S(=O)(=O)c3ccc(C)c(F)c3)c(=O)c2c1,24.1 µM
19,O=c1[nH]cccc1NS(=O)(=O)c1ccc(F)cc1,> 50 µM (inactive)
20,COc1cccc(NC(=O)CSc2nnc(-c3cc4cccc(OC)c4o3)n2C)c1,14.6 µM
21,O=S(=O)(c1ccc(F)cc1)N1CCCC1c1ccnc(Nc2cnccn2)n1 (stereo not drawn),> 50 µM (inactive)
22,O=C(Nc1cccc(F)c1)c1ncoc1-c1ccco1,> 50 µM (inactive)
23,CCS(=O)(=O)c1ccccc1C(=O)Nc1ccc2sc(C)nc2c1,17.2 µM
24,COc1cc(-c2nc(C(N)=O)c3[nH]c(=O)n(-c4ccc(C)cc4)c3n2)cc(OC)c1OC,1.72 µM
25,Cc1nn(-c2ccccc2)c2c1N=C1C(Cl)=CC(Cl)=CN1C21C(=O)Nc2ccccc21 (stereo not drawn),> 50 µM (inactive)
26,O=C(Nc1ccc(-c2cn3ccsc3n2)cc1)c1ccc(Cl)c([N+](=O)[O-])c1,1.53 µM

row,SMILES,IC50
1,CCOC(=O)N1CCN(S(=O)(=O)c2ccc(C(=O)Nc3ccc(Br)cc3)cc2)CC1,18.3 µM
2,COc1ncccc1CN1CCn2c(Cn3cccn3)cnc2C1C (stereo not drawn),> 50 µM (inactive)
3,O=C(COc1ccc(Cl)cc1)Nc1noc(-c2ccccc2)n1,22.4 µM
4,Cc1ccccc1NC(=O)c1ccn(COc2ccc(Cl)cc2)n1,13.3 µM
5,COc1ccc(NS(=O)(=O)c2ccc(NC(=O)Nc3ccc(Cl)cc3)cc2)cc1,24.9 µM
6,COc1ccc(/C=C/c2ccnc3nc(-n4cccc4)nn23)cc1,> 50 µM (inactive)
7,COc1ccc(-c2ccnc(-c3ccc(OCc4cccc(F)c4)cc3)n2)cc1,> 50 µM (inactive)
8,O=C(CCCCn1c(=O)[nH]c2ccccc2c1=O)Nc1cccc(Cl)c1,16.7 µM
9,CN1CCC(N(C)S(=O)(=O)c2ccc(NC(=O)c3cccc(OCc4ccccc4)c3)cc2)CC1,17.2 µM
10,CN(Cc1ccccc1)S(=O)(=O)c1ccc2[nH]cc(C(=O)NCc3cccs3)c(=O)c2c1,1.52 µM
11,CCCNc1cc(-c2ccccc2)nc2nc(-c3cccnc3)nn12,> 50 µM (inactive)
12,O=C(Cn1c(CSc2ccccc2)nc2ccccc21)Nc1ccccc1F,26.4 µM
13,COc1cccc(N2CCN(C(=O)Nc3ccc4c(c3)NC(=O)CO4)CC2)c1,19.4 µM
14,FC(F)(F)c1ccccc1CCN1CCc2nc3ncc(Cl)cc3cc2C1,> 50 µM (inactive)
15,Cc1sc2ccn(C)c(=O)c2c1C(=O)NC1CCCC1,4.28 µM
16,Cc1cc(N2CCC(NC(=O)NCc3ccc(F)cc3)C2=O)ccc1F (stereo not drawn),15 µM
17,COc1ccc(C(=O)Nc2nc(-c3ccc4c(c3)NC(=O)CO4)c(C)s2)cc1OC,1.72 µM
18,Cc1ccc2nc(N3CCc4ccccc4C3)c3nncn3c2c1,> 50 µM (inactive)
19,c1ccc(CCN2CCc3nc4cccnc4cc3C2)nc1,> 50 µM (inactive)
20,COc1ccccc1CNC(=O)Nc1cccc2ccccc12,42.4 µM
21,CC(C)c1ccc(NC(=O)COC(=O)c2ccc3[nH]c4c(c3c2)CCCC4)cc1,31.4 µM
22,CCN1C(=O)c2cccnc2Sc2cc(NC(=O)c3ccc(Cl)s3)ccc21,4.61 µM
23,C=C1CCC2[C@](C)(CCC[C@]2(C)C(=O)OC)[C@H]1CCc1ccoc1CNC(C)C (stereo partly drawn),> 50 µM (inactive)
24,Cn1c2ccccc2c(=O)c2c(=O)n(Cc3ccccc3)c(-c3ccco3)nc21,1.23 µM
25,Cc1nc(CN2CCn3c(Cn4cccn4)cnc3C2C)cs1 (stereo not drawn),> 50 µM (inactive)
26,Cc1ccc2c(c1)[C@]1(C(=O)N2)[C@@H](C(=O)c2ccccc2)[C@]2(C(=O)Nc3ccccc32)[C@@H]2CCCN21,23.3 µM

row,SMILES,IC50
1,O=C(Cc1ccc(Cl)c(Cl)c1)OCC(=O)c1c[nH]c2ccccc12,> 50 µM (inactive)
2,N#Cc1ccc(NC(=O)Nc2cccn(Cc3ccccc3Br)c2=O)cc1,4.34 µM
3,C/C=C(\Cl)C1=CC(=O)[C@]23C[C@H]2[C@@]2(C)CO[C@@]1(O)[C@@]3(O)O2,> 50 µM (inactive)
4,Cc1ccc2c(c1C)NC(=O)[C@]21[C@@H]2C(=O)N(c3cccc(Cl)c3)C(=O)[C@@H]2[C@@H]2CCCN21,> 50 µM (inactive)
5,CO/C=C/C(=O)c1cc2cnc3c(=N)cc(NC(C)=O)c([nH]1)c23,> 50 µM (inactive)
6,COCCNC(=O)Cn1c(=O)n(Cc2ccccc2)c(=O)c2c3c(sc21)CCC3,32.7 µM
7,c1ccc2c(Cc3nc(-c4ccncc4)no3)cccc2c1,0.374 µM
8,O=C(OC1CSc2nc3ccccc3n2C1)c1ccc([N+](=O)[O-])o1 (stereo not drawn),33.2 µM
9,O=C(/C=C/c1ccco1)c1cccc([N+](=O)[O-])c1,21.9 µM
10,O=C(Nc1cccc(Cl)c1)N1CCC(c2cc(-c3ccco3)n[nH]2)CC1,4.68 µM
11,C[C@@H](C(=O)NCc1ccc(F)cc1)N1C(=O)N2CCc3c([nH]c4ccccc34)[C@@]2(C)C1=O,14.9 µM
12,CCOC(=O)[C@@H]1[C@@H](c2ccccc2)CN2CCN(C(=O)c3cnccn3)C[C@H]12,> 50 µM (inactive)
13,Cc1ccc(CNC(=O)c2cnc3ccccc3n2)cc1,> 50 µM (inactive)
14,COc1ccc2cc1Oc1cc(ccc1OC)C(O)C13SSC4(C(=O)N1C)C(O)C1=COC=CC(OC2=O)C1N4C3=O (stereo not drawn),> 50 µM (inactive)
15,Cc1cccc(NC(=O)CSc2ccc(-n3cnc(-c4ccccc4)c3)nn2)c1,16.5 µM
16,O=C(Cn1c(=O)c2sccc2n(Cc2ccc([N+](=O)[O-])cc2)c1=O)NCCc1ccccc1,19.5 µM
17,Cc1cc(CSc2ncccc2C(=O)Nc2ccnn2Cc2cccnc2)no1,> 50 µM (inactive)
18,COc1ccc(Cl)cc1N1C(=O)[C@H]2[C@@H](C1=O)[C@]1(C(=O)Nc3c(C)cc(C)cc31)N1CCC[C@@H]21,> 50 µM (inactive)
19,COc1ccc(NC(=O)c2ccnc(Nc3ccc(OC)cc3)c2)cc1,39.7 µM
20,COc1ccc(-c2cc(-c3ccc(F)cc3)[nH]c(=O)c2C#N)cc1,21.8 µM
21,O=C(NC1(O)C(=O)c2ccccc2C1=O)c1ccc(-c2csnn2)cc1,36.5 µM
22,COC(=O)C1C(c2ccc(Cl)cc2Cl)C2(C(=O)c3ccccc3C2=O)C2C=Cc3ccccc3N12 (stereo not drawn),> 50 µM (inactive)
23,Fc1ccccc1N1CCN(c2ncc3c(n2)CCN(Cc2ccccn2)C3)CC1,31 µM
24,COc1ccc(C(C(=O)NCc2ccccc2)N(C(=O)CCN2CCc3ccccc32)c2ccc(C)c(C)c2)cc1 (stereo not drawn),> 50 µM (inactive)
25,Cc1ccc(CN2C(=O)c3cc4ccccc4n3CC2(C)C(=O)NCc2ccccc2)o1 (stereo not drawn),44.6 µM
